Experimental data taken from US11065253B2, “Arylquinazolines” (Merck Patent GmbH, priority 2013, dated 2021).
Where two headings read alike, the source gives them in different places. Values belong to the compound of their own block, whether it stands above or below them.

System: phospho-serine 2056 DNA-PK in HCT116 cells
Assay: DNA-PK phosphorylation at serine 2056 (cellular), ELISA in bleomycin-treated HCT116 cells
Assay type: cell-based
Settings: read-out: IC50 pDNA-PK
Description: HCT116 cells were cultivated at 37° C. and 10% CO2 in MEM alpha medium with 10% of foetal calf serum and 2 mM glutamine. The cells were detached from the base of the culture vessels with the aid of trypsin/EDTA, centrifuged off in centrifuge tubes, taken up in fresh medium, and the cell density was determined. 100,000 cells were sown in 1 ml of culture medium per cavity of a 24-well cell culture plate and cultivated overnight. Next day, 10 μM bleomycin (DNA intercalator and inductor of DNA double-strand breaks) and test substances in fresh culture medium were added to the cells, and these were cultivated for a further six hours. […] The 96-well ELISA plates were subsequently treated with a detection antibody (Abcam ab79444: total DNA-PK) and a streptavidin-HRP conjugate. The development of the enzymatic reaction was carried out with the aid of a chemiluminescent reagent, the chemiluminescence was measured with the aid of a Mithras LB940. The signals with the phospho-DNA-PK-specific antibody were standardised to the signal with the antibody against the total protein DNA-PKc. […] The DMSO control was used as blank.

[1] = Homo sapiens, HCT-116, cellular DNA-PK phosphorylation at serine 2056, HCT116 cells
[2] = cellular, HCT116 cells, 10 μM bleomycin, six hours
[3] = Homo sapiens, HCT-116, phospho-serine 2056 DNA-PK, bleomycin-treated HCT116 cells
[4] = cellular DNA-PK phosphorylation at serine 2056, HCT116 cells
[5] = Homo sapiens, HCT-116, 6 h, cellular, HCT116 cells, 10 μM bleomycin, six hours
[6] = Homo sapiens, HCT-116, phospho-serine 2056 DNA-PK, bleomycin-treated HCT116 cells, class symbols A-D

Structure (SMILES): Cn1c(C(C(N)=O)c2cc(-c3ncnc4cc(N5CCOCC5)ccc34)c(F)cc2Cl)cccc1=O (centres unmarked) [Example 312, 2-[2-Chloro-4-fluoro-5-(7-morpholin-4-yl-quinazolin-4-yl)-phenyl]-2-(1-methyl-6-oxo-1,6-dihydro-pyridin-2-yl)-acetamide]
IC50 [3]: 10000 to 30000 nM

Structure (SMILES): OC(c1cc(-c2ncnc3cc(N4CCOCC4)ccc23)ccc1Cl)c1ncnc2occc12 (centres unmarked) [Example 416, [2-Chloro-5-(7-morpholin-4-yl-quinazolin-4-yl)-phenyl]furo[2,3-d}-pyrimidin-4-yl-methanol]
IC50 [1]: 500 to 5000 nM

Structure (SMILES): OC(c1cc(-c2ncnc3cc(N4CCOCC4)ccc23)ccc1F)c1ncnc2ccsc12 (centres unmarked) [Example 405, [2-Fluoro-5-(7-morpholin-4-yl-quinazolin-4-yl)-phenyl]thieno[3,2-d}-pyrimidin-4-yl-methanol]
IC50 [1]: < 500 nM

Structure (SMILES): Cc1cncnc1C(C(N)=O)c1cc(-c2ncnc3cc(N4CCOCC4)ccc23)ccc1Cl (centres unmarked) [Example 378, 2-[2-Chloro-5-(7-morpholin-4-yl-quinazolin-4-yl)-phenyl]-2-(5-methyl-pyrimidin-4-yl)-acetamide (Ena 1)]
IC50 [4]: 500 to 5000 nM

Structure (SMILES): OC(c1cc(-c2ncnc3cc(N4CCOCC4)ccc23)c(F)cc1Cl)c1ncnc2ccoc12 (centres unmarked) [Example 452, [2-Chloro-4-fluoro-5-(7-morpholin-4-yl-quinazolin-4-yl)-phenyl]furo[3,2-d}-pyrimidin-4-yl-methanol]
IC50 [4]: < 500 nM

Structure (SMILES): Cn1c(C(O)c2cc(-c3ncnc4cc(N5CCOCC5)ccc34)ccc2Cl)cccc1=O (centres unmarked) [Example 400, 6-{[2-Chloro-5-(7-morpholin-4-yl-quinazolin-4-yl)-phenyl]hydroxy-methyl}-1-methyl-1H-pyridin-2-one]
IC50 [1]: < 500 nM

Structure (SMILES): [2H]C1([2H])OC([2H])([2H])C([2H])([2H])N(c2ccc3c(-c4cc(C(O)c5nccnc5OC)c(Cl)cc4F)ncnc3c2)C1([2H])[2H] (centres unmarked) [Example 241, [2-Chloro-4-fluoro-5-[7-(2,2,3,3,5,5,6,6-octadeuterio-morpholin-4-yl)quinazolin-4-yl]phenyl]-(3-methoxypyrazin-2-yl)methanol]
IC50 [3]: < 500 nM

Structure (SMILES): OC(c1cc(-c2ncnc3cc(N4CCOCC4)ccc23)c(F)cc1F)c1ncnc2ccoc12 (centres unmarked) [Example 445, [2,4-Difluoro-5-(7-morpholin-4-yl-quinazolin-4-yl)-phenyl]furo[3,2-d}-pyrimidin-4-yl-methanol]
IC50 [4]: < 500 nM

Structure (SMILES): Cn1c(C(O)c2cc(-c3ncnc4cc(N5CCOCC5)ccc34)c(F)cc2Cl)cccc1=O (centres unmarked) [Example 435, 6-{[2-Chloro-4-fluoro-5-(7-morpholin-4-yl-quinazolin-4-yl)-phenyl]hydroxy-methyl}-1-methyl-1H-pyridin-2-one]
IC50 [4]: < 500 nM

Structure (SMILES): O[C@@H](c1cc(-c2ncnc3cc(N4CCOCC4)ccc23)c(F)cc1Cl)c1nccn2ccnc12 (single isomer, unassigned) [Example 396]
IC50 [4]: < 500 nM

Structure (SMILES): OC(c1cn2ccsc2n1)c1cc(-c2ncnc3cc(N4CCOCC4)ccc23)c(F)cc1F (centres unmarked) [Example 474, [2,4-Difluoro-5-(7-morpholin-4-yl-quinazolin-4-yl)-phenyl]imidazo-[2,1-b]thiazol-6-yl-methanol]
IC50 [1]: 10000 to 30000 nM

Structure (SMILES): [2H]c1c(N2CCOCC2)cc2ncnc(-c3cc(C(O)c4ccc(OC)nn4)c(Cl)cc3F)c2c1[2H] (centres unmarked) [Example 225, [2-Chloro-5-(5,6-dideuterio-7-morpholino-quinazolin-4-yl)-4-fluorophenyl]-(6-methoxypyridazin-3-yl)methanol]
IC50 [3]: < 500 nM

Structure (SMILES): OCc1csc([C@H](O)c2cc(-c3ncnc4cc(N5CCOCC5)ccc34)c(F)cc2Cl)n1 [Example 186, (R)-[2-Chloro-4-fluoro-5-(7-morpholin-4-yl-quinazolin-4-yl)-phenyl]-(4-hydroxymethyl-thiazol-2-yl)-methanol]
IC50 [6]: 5000 to 10000 nM

Structure (SMILES): OC(c1ccc(F)c(-c2ncnc3cc(N4CCOCC4)sc23)c1)c1nccs1 (centres unmarked) [Example 146, [4-Fluoro-3-(6-morpholin-4-yl-thieno[3,2-d}-pyrimidin-4-yl)-phenyl]thiazol-2-yl-methanol]
IC50 (phospho-serine 2056 DNA-PK, bleomycin-treated HCT116 cells, class symbols A-D): 500 to 5000 nM

Structure (SMILES): OC(c1ccc(OCC(F)(F)F)nn1)c1cc(-c2ncnc3cc(N4CCOCC4)ccc23)c(F)cc1Cl (centres unmarked) [Example 115, [2-Chloro-4-fluoro-5-(7-morpholin-4-yl-quinazolin-4-yl)-phenyl]-[6-(2,2,2-trifluoro-ethoxy)-pyridazin-3-yl]-methanol]
IC50 [6]: 500 to 5000 nM

Other lines, results leading:

IC50 [1]: 500 to 5000 nM
Structure (SMILES): COc1cncnc1C(O)c1cc(-c2ncnc3cc(N4CCOCC4)ccc23)c(F)cc1Cl (centres unmarked) [Example 447, [2-Chloro-4-fluoro-5-(7-morpholin-4-yl-quinazolin-4-yl)-phenyl]-(5-methoxy-pyrimidin-4-yl)-methanol]

IC50 [2]: < 500 nM
Structure (SMILES): Cc1nccnc1C(O)c1cc(-c2ncnc3cc(N4CCOCC4)ccc23)c(F)cc1F (centres unmarked) [Example 86, [2,4-Difluoro-5-(7-morpholin-4-yl-quinazolin-4-yl)-phenyl]-(3-methyl-pyrazin-2-yl)methanol]

IC50 [1]: < 500 nM
Structure (SMILES): OC(c1ccc(F)c(-c2ncnc3cc(N4CCOCC4)ccc23)c1)c1ncnc2ccsc12 (centres unmarked) [Example 438, [4-Fluoro-3-(7-morpholin-4-yl-quinazolin-4-yl)-phenyl]thieno[3,2-d}-pyrimidin-4-yl-methanol]

IC50 [4]: 500 to 5000 nM
Structure (SMILES): COc1cncnc1C(O)c1cc(-c2ncnc3cc(N4CCOCC4)ccc23)ccc1Cl (centres unmarked) [Example 409, [2-Chloro-5-(7-morpholin-4-yl-quinazolin-4-yl)-phenyl]-(5-methoxy-pyrimidin-4-yl)-methanol (Ena 1)]

IC50 [5]: < 500 nM
Structure (SMILES): Cc1cnc(C)c(C(O)c2cc(-c3ncnc4cc(N5CCOCC5)ccc34)c(F)cc2F)n1 (centres unmarked) [Example 88, [2,4-Difluoro-5-(7-morpholin-4-yl-quinazolin-4-yl)-phenyl]-(3,6-dimethyl-pyrazin-2-yl)methanol]

IC50 [2]: < 500 nM
Structure (SMILES): OC(c1ccc(F)c(-c2ncnc3cc(N4CCOCC4)sc23)c1)c1nccnc1Cl (centres unmarked) [Example 37, (3-Chloropyrazin-2-yl)-[4-fluoro-3-(6-morpholin-4-ylthieno[3,2-d}pyrimidin-4-yl)phenyl]-methanol]

IC50 [6]: 10000 to 30000 nM
Structure (SMILES): COc1ccc([C@H](O)c2cc(-c3ncnc4cc(N5CCOCC5)ccc34)c(F)cc2Cl)nn1 [Example 135, (R)-[2-Chloro-4-fluoro-5-(7-morpholin-4-yl-quinazolin-4-yl)-phenyl]-(6-methoxy-pyridazin-3-yl)-methanol]

IC50 [3]: 10000 to 30000 nM
Structure (SMILES): Cc1nccnc1C(O)c1ccc(F)c(-c2ncnc3cc(N4CCOCC4)c(F)cc23)c1 (centres unmarked) [Example 283, [4-Fluoro-3-(6-fluoro-7-morpholin-4-yl-quinazolin-4-yl)-phenyl]-(3-methyl-pyrazin-2-yl)-methanol]

IC50 [1]: 500 to 5000 nM
Structure (SMILES): OC(c1ccc(F)c(-c2ncnc3cc(N4CCOCC4)ccc23)c1)c1nnc2ccccn12 (centres unmarked) [Example 399, [4-Fluoro-3-(7-morpholin-4-yl-quinazolin-4-yl)-phenyl]-[1,2,4]-triazolo[4,3-a]pyridin-3-ylmethanol]

IC50 [5]: 5000 to 10000 nM
Structure (SMILES): OC(c1ccc(F)c(-c2ncnc3cc(N4CCOCC4)ccc23)c1)c1nccnc1OC1COC1 (centres unmarked) [Example 32, [4-fluoro-3-(7-morpholin-4-yl-quinazolin-4-yl)phenyl]-[3-(oxetan-3-yloxy)-pyrazin-2-yl]methanol]

IC50 [6]: 10000 to 30000 nM
Structure (SMILES): OCCOc1nccnc1C(O)c1ccc(F)c(-c2ncnc3cc(N4CCOCC4)ccc23)c1 (centres unmarked) [Example 105, 2-(3-{[4-fluoro-3-(7-morpholin-4-yl-quinazolin-4-yl)-phenyl]hydroxy-methyl}pyrazin-2-yl-oxy)ethanol]

IC50 [3]: < 500 nM
Structure (SMILES): Cc1nccnc1Cc1ccc(F)c(-c2ncnc3cc(N4CCOCC4)ccc23)c1 [Example 349, 4-[2-Fluoro-5-(3-methyl-pyrazin-2-ylmethyl)phenyl]-7-morpholin-4-yl-quinazoline]

IC50 [1]: < 500 nM
Structure (SMILES): OC(c1ccc(F)c(-c2ncnc3cc(N4CCOCC4)ccc23)c1)c1ncccc1Br (centres unmarked) [Example 478, (3-bromo-pyridin-2-yl)-[4-fluoro-3-(7-morpholin-4-yl-quinazolin-4-yl)-phenyl]methanol]

IC50 [5]: < 500 nM
Structure (SMILES): COc1cnc(Cl)c(C(O)c2ccc(F)c(-c3ncnc4cc(N5CCOCC5)ccc34)c2)n1 (centres unmarked) [Example 26, (3-Chloro-6-methoxy-pyrazin-2-yl)-[4-fluoro-3-(7-morpholin-4-yl-quinazolin-4-yl)phenyl]-methanol]

IC50 [1]: < 500 nM
Structure (SMILES): Cn1cnc2ccnc(C(O)c3ccc(F)c(-c4ncnc5cc(N6CCOCC6)ccc45)c3)c21 (centres unmarked) [Example 461, [4-Fluoro-3-(7-morpholin-4-yl-quinazolin-4-yl)-phenyl]-(3-methyl-3H-imidazo[4,5-c]-pyridin-4-yl)methanol]

IC50 [5]: < 500 nM
Structure (SMILES): COc1cnc(Cl)c(C(O)c2ccc(F)c(-c3ncnc4cc(N5CCOCC5)ccc34)c2)c1 (centres unmarked) [Example 22, (2-Chloro-5-methoxy-pyridin-3-yl)-[4-fluoro-3-(7-morpholin-4-yl-quinazolin-4-yl)phenyl]-methanol]

IC50 [1]: 500 to 5000 nM
Structure (SMILES): Cn1c(C(O)c2ccc(F)c(-c3ncnc4cc(N5CCOCC5)ccc34)c2)cccc1=O (centres unmarked) [Example 375, 6-{[4-Fluoro-3-(7-morpholin-4-yl-quinazolin-4-yl)-phenyl]hydroxy-methyl}-1-methyl-1H-pyridin-2-one (Ena 2)]
